From US20230096766A1, “AMINO ACID HAVING FUNCTIONAL GROUP CAPABLE OF INTERMOLECULAR HYDROGEN BONDING, PEPTIDE COMPOUND CONTAINING SAME AND METHOD FOR PRODUCTION THEREOF” (Chugai Seiyaku Kabushiki Kaisha, priority 2018, published 2023)
*1 amine or outer side, *2 acyl side, *3 side chain or, on linkers, in order; H or OH if unused. Where a SMILES comes first, the peptide text is derived from it. Bridges are numbered along the chain shown (N, C = ends). [ ]: non-standard residue; d: D form. The star is where a group is joined. X11 = CNC(=O)c1ccc(CCN(CC(=O)[*:2])[*:1])cc1OC; NMeW = CN[C@@H](Cc1c[nH]c2ccccc12)C(=O)O; NMehPhe = CN[C@@H](CCc1ccccc1)C(=O)O; NMeF = CN[C@@H](Cc1ccccc1)C(=O)O; NMeGABA = CN(CCCC(=O)[*:2])[*:1]; Butyl(3-Me,3-OH) = CC(C)(O)CC*; CH2CH(OH)CF3 = OC(C*)C(F)(F)F; CH2CONHtBu = CC(C)(C)NC(=O)C*; NMeL = CN[C@@H](CC(C)C)C(=O)O; NMeA = CN[C@@H](C)C(=O)O; Piperidide = C1CCN(*)CC1; Sar = CNCC(=O)O; tBu = CC(C)(C)*

Experiment: in vitro
Settings: human, Caco-2, Caco-2 (cm/sec)

Question: For `CC[C@H](C)[C@@H]1NC(=O)[C@H](CC(C)C)N(C)C(=O)[C@@H](CC(C)C)NC(=O)C[C@@H](C(=O)N2CCCCC2)NC(=O)[C@H](CC(C)C)N(C)C(=O)[C@H](Cc2ccccc2)N(C)C(=O)[C@H](COC(C)(C)C)NC(=O)CN(CCc2ccc(C(=O)NC)c(OC)c2)C(=O)CN(C)C(=O)[C@H]([C@@H](C)O)NC(=O)[C@H](CC(C)C)N(C)C1=O` [AP221] ([dL][NMeL]I[NMeL]T[Sar][X11]S(tBu)[NMeF][NMeL]D-Piperidide; lactam N-11), which Papp is on record?
Answer: 0.28 ×10⁻⁶ cm/s

Question: For `CC[C@H](C)[C@@H]1NC(=O)[C@H](Cc2ccccc2)N(C)C(=O)[C@@H](C)NC(=O)C[C@@H](C(=O)N2CCCCC2)NC(=O)[C@H](CC(C)C)N(C)C(=O)[C@H](C)N(C)C(=O)[C@H](COC(C)(C)C)NC(=O)[C@H](C)N(C)C(=O)CN(C)C(=O)[C@H](Cc2ccc(O)cc2)NC(=O)[C@H](CC(C)C)N(C)C1=O` [pd112] ([dA][NMeF]I[NMeL]Y[Sar][NMeA]S(tBu)[NMeA][NMeL]D-Piperidide; lactam N-11), which Papp is on record?
Answer: 0.11 ×10⁻⁶ cm/s

Question: Which Papp does the source give for `CC(C)C[C@@H]1NC(=O)[C@H](CC(C)C)N(C)C(=O)[C@H](CCc2ccccc2)N(C)C(=O)[C@H](COCC(=O)NC(C)(C)C)NC(=O)[C@H](CC(C)C)N(C)C(=O)C[C@@H](C(=O)N2CCCCC2)NC(=O)[C@H](C)N(C)C(=O)CN(C)C(=O)[C@H]([C@@H](C)O)NC(=O)[C@H](CCc2ccccc2)N(C)C(=O)[C@H](CC(C)C)N(C)C1=O` [AP16] ([NMeL]S(CH2CONHtBu)[NMehPhe][NMeL]L[NMeL][NMehPhe]T[Sar][NMeA]D-Piperidide; lactam N-11) here?
Answer: 0.27 ×10⁻⁶ cm/s

Question: Which Papp does the source give for `CC(C)C[C@H]1C(=O)N(C)[C@@H](Cc2c[nH]c3ccccc23)C(=O)N(C)[C@@H](Cc2ccccc2)C(=O)N[C@@H]([C@@H](C)O)C(=O)N(C)[C@@H](C)C(=O)N(C)[C@@H](CC(C)C)C(=O)N[C@H](C(=O)N2CCCCC2)CC(=O)N(C)[C@@H](C)C(=O)N(C)[C@@H](CC(C)C)C(=O)N(C)[C@@H](CC(C)C)C(=O)N[C@@H](C)C(=O)N1C` [pd104] ([NMeA][NMeL][NMeL]A[NMeL][NMeW][NMeF]T[NMeA][NMeL]D-Piperidide; lactam N-11) here?
Answer: 0.025 ×10⁻⁶ cm/s

Question: Which Papp does the source give for `CC[C@H](C)[C@@H]1NC(=O)[C@H](Cc2ccccc2)N(C)C(=O)CN(C)C(=O)C[C@@H](C(=O)N2CCCCC2)NC(=O)[C@H](CC(C)C)N(C)C(=O)[C@H](COCCC(C)(C)O)NC(=O)[C@H](CC(C)C)N(C)C(=O)[C@H](CCc2ccccc2)N(C)C(=O)CN(C)C(=O)[C@H]([C@@H](C)O)NC(=O)[C@H](CC(C)C)N(C)C1=O` [AP58] ([Sar][NMeF]I[NMeL]T[Sar][NMehPhe][NMeL]S(Butyl(3-Me,3-OH))[NMeL]D-Piperidide; lactam N-11) here?
Answer: 0.49 ×10⁻⁶ cm/s

Question: With `CC(C)C[C@@H]1NC(=O)[C@H](Cc2ccccc2)N(C)C(=O)[C@H](C)NC(=O)C[C@@H](C(=O)N2CCCCC2)NC(=O)[C@H](Cc2ccccc2)N(C)C(=O)[C@H](Cc2ccccc2)N(C)C(=O)[C@H](COC(C)(C)C)NC(=O)[C@H](CC(C)C)N(C)C(=O)CN(C)C(=O)[C@H]([C@@H](C)O)NC(=O)[C@H](CC(C)C)N(C)C1=O` [pd217] (A[NMeF]L[NMeL]T[Sar][NMeL]S(tBu)[NMeF][NMeF]D-Piperidide; lactam N-11) as the molecule, how does the Papp read?
Answer: 1.1 ×10⁻⁶ cm/s

Same assay, conditions: human, Caco-2, Caco-2 (membrane permeability)

Question: With `CC[C@H](C)[C@@H]1NC(=O)[C@H](CC(C)C)N(C)C(=O)CCCN(C)C(=O)C[C@@H](C(=O)N2CCCCC2)NC(=O)[C@H](CC(C)C)N(C)C(=O)[C@H](CC(C)C)N(C)C(=O)[C@H]([C@@H](C)O)NC(=O)[C@H](CC(C)C)N(C)C(=O)[C@H](COCC(O)C(F)(F)F)NC(=O)[C@H](Cc2ccccc2)N(C)C(=O)[C@H](Cc2ccccc2)N(C)C1=O` (stereo partly drawn) [Compound C03] ([NMeGABA][NMeL]I[NMeF][NMeF]S(CH2CH(OH)CF3)[NMeL]T[NMeL][NMeL]D-Piperidide; lactam N-11) as the molecule, how does the Papp read?
Answer: 0.5 ×10⁻⁶ cm/s
